From ChEMBL document CHEMBL5291721, “A preclinical secondary pharmacology resource illuminates target-adverse drug reaction associations of marketed drugs” (Nat Commun, 2023) come the findings set out here.

Test [1] addresses Voltage-gated inwardly rectifying potassium channel KCNH2 (Homo sapiens, UniProt Q12809). Type of test: functional. The settings on record: read-out: AC50.
Test [2] concerns the target 3',5'-cyclic-AMP phosphodiesterase 4D (Homo sapiens, UniProt Q08499). Format: functional.
The target of test [3] is cGMP-inhibited 3',5'-cyclic phosphodiesterase 3A (Homo sapiens, UniProt Q14432). Type of test: functional.
For another test, the target named is D(3) dopamine receptor (Homo sapiens, UniProt P35462).
Test [4] concerns the target Gamma-aminobutyric acid receptor subunit alpha-1 (Rattus norvegicus, UniProt P62813). Type of test: functional.
Test [5] deals with 5-hydroxytryptamine receptor 2B (Homo sapiens, UniProt P41595). Type of test: functional, cell-based.
The target in another test is Vasopressin V2 receptor (Homo sapiens, UniProt P30518).
For test [6], the target named is T1, Alpha-2A adrenergic receptor (Homo sapiens, UniProt P08913).
T1 sequence (P08913 whole entry): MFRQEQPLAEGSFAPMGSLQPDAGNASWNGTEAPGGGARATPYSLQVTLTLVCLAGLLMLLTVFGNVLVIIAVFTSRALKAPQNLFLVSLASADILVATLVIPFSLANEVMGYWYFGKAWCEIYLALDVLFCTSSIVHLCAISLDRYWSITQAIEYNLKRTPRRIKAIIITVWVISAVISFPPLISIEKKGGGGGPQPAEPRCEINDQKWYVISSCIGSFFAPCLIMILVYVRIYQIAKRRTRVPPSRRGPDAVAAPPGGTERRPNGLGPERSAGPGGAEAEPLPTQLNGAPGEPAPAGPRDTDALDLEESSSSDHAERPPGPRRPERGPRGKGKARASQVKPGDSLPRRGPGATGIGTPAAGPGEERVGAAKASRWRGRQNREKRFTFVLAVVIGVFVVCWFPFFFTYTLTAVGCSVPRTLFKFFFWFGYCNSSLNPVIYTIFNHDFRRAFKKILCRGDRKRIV
Format: functional, cell-based.

A further test addresses T2, B2 bradykinin receptor (Homo sapiens, UniProt P30411).
T2 sequence (P30411 whole entry): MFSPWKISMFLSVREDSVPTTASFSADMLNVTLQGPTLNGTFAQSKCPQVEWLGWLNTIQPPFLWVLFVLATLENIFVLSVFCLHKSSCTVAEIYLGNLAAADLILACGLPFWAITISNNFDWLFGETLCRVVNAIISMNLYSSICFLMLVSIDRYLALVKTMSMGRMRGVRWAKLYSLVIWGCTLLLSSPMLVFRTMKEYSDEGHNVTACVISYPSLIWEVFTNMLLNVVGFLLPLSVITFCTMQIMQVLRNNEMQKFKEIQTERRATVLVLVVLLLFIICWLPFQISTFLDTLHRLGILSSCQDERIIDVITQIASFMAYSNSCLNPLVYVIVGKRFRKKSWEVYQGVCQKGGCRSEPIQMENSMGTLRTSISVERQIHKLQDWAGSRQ

The target in test [7] is T1, Alpha-2A adrenergic receptor. Type of test: functional, cell-based. This is another data set of the same source.
The target of test [8] is Sodium-dependent dopamine transporter (Homo sapiens, UniProt Q01959).
Another test addresses T3, Glucocorticoid receptor (Homo sapiens, UniProt P04150).
T3 sequence (P04150 whole entry): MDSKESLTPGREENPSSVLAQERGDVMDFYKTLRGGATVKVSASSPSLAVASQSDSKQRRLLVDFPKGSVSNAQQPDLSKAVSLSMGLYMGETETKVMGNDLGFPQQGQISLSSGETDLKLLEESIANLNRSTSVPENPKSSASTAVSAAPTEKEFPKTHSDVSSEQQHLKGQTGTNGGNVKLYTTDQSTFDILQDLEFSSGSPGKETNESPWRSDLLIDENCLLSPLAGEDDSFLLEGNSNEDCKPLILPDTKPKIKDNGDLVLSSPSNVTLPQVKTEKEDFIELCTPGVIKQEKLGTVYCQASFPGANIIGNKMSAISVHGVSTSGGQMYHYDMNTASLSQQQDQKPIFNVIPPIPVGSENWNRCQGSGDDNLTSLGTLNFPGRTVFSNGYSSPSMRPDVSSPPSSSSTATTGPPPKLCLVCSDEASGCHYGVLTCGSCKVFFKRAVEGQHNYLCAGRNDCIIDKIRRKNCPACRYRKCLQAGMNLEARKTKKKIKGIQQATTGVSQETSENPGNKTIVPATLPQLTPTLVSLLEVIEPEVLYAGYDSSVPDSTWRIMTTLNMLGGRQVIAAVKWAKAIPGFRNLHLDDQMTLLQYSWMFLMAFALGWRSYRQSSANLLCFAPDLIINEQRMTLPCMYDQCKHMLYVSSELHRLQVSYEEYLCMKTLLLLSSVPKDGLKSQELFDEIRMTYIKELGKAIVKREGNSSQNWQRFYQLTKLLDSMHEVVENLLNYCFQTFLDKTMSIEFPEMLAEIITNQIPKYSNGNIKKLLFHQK

For test [9], the target named is Delta-type opioid receptor (Homo sapiens, UniProt P41143).
The next test has as its target T4, Adenosine receptor A1 (Homo sapiens, UniProt P30542).
T4 sequence (P30542 whole entry): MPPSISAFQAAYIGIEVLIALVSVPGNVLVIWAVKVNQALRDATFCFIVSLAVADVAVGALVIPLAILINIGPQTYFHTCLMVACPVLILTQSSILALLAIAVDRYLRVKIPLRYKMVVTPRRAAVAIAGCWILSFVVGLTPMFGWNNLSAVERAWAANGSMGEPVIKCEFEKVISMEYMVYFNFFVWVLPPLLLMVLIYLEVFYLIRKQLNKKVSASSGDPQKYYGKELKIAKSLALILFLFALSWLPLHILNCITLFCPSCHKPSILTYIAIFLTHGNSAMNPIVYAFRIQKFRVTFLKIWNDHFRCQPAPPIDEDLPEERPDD

Test [10] has as its target Glutamate receptor ionotropic, NMDA 1 (Rattus norvegicus, UniProt P35439).
The target of the next test is Cannabinoid receptor 1 (Homo sapiens, UniProt P21554). Type of test: functional, cell-based.
Note: assay procedure not described here.

Sequence of Cannabinoid receptor 1 (P21554 whole entry): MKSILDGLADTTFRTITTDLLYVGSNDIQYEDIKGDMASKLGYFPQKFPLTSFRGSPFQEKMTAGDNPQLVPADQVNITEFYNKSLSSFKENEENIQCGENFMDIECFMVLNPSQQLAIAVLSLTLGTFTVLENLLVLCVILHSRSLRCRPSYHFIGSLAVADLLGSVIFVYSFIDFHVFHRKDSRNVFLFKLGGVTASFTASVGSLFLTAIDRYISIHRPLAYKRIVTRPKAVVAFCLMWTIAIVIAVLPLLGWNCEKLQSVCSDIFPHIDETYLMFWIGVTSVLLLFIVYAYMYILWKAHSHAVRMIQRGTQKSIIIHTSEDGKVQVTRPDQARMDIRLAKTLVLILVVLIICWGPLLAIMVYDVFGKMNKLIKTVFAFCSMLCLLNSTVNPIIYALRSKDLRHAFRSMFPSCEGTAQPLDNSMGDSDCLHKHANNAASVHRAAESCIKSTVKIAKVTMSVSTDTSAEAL
Sequence of D(3) dopamine receptor (P35462 whole entry): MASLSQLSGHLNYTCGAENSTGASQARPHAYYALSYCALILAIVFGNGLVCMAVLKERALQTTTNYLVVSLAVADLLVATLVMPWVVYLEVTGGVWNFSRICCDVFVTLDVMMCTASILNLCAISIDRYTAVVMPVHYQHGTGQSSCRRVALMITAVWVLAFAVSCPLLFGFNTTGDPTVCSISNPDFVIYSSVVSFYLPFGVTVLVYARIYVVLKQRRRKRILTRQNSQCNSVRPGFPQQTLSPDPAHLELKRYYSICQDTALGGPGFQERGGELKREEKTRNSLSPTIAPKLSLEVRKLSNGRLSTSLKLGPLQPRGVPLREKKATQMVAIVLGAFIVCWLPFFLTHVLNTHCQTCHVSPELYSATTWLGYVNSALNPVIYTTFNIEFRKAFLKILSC
Sequence of cGMP-inhibited 3',5'-cyclic phosphodiesterase 3A (Q14432 whole entry): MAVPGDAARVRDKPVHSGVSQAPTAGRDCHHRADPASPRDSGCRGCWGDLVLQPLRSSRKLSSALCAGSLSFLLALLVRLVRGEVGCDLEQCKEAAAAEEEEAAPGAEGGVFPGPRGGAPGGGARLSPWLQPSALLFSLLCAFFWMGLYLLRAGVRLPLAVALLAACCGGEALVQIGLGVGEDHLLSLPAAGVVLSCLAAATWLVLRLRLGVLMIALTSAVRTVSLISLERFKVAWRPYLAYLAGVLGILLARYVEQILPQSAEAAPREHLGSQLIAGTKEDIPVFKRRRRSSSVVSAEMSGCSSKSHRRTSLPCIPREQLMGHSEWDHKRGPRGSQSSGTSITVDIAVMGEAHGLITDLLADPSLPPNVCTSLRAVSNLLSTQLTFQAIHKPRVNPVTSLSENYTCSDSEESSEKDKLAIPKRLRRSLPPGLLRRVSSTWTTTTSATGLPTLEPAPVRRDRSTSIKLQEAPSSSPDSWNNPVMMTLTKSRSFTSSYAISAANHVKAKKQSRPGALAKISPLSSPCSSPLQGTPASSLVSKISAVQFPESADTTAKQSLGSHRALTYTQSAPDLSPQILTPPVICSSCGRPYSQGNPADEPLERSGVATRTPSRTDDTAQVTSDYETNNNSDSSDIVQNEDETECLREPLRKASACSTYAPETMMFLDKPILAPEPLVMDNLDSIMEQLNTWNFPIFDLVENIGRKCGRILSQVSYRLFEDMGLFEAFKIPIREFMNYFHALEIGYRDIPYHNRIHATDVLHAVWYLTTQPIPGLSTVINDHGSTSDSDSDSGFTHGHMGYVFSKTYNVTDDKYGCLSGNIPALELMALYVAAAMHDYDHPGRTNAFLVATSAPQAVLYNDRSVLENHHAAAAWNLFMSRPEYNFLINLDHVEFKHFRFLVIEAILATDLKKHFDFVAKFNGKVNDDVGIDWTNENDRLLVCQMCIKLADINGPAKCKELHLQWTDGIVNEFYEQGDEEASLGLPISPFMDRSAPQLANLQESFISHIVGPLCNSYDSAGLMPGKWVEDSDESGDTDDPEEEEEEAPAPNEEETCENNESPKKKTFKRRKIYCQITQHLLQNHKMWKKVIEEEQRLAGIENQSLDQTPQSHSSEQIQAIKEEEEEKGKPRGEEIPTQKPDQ
Sequence of Gamma-aminobutyric acid receptor subunit alpha-1 (P62813 whole entry): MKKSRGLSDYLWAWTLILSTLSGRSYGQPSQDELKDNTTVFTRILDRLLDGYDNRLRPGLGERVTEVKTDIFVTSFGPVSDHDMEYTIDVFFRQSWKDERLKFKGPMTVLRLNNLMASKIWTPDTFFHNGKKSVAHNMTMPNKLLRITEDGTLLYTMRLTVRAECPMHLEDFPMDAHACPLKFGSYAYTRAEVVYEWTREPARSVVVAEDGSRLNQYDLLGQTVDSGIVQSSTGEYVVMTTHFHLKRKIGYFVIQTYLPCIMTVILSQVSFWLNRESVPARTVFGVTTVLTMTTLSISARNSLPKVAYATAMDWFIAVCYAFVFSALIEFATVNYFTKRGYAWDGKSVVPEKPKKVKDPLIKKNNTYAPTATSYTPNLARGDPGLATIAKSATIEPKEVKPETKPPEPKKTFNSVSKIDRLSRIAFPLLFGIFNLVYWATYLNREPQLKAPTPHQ
Sequence of Voltage-gated inwardly rectifying potassium channel KCNH2 (Q12809 whole entry): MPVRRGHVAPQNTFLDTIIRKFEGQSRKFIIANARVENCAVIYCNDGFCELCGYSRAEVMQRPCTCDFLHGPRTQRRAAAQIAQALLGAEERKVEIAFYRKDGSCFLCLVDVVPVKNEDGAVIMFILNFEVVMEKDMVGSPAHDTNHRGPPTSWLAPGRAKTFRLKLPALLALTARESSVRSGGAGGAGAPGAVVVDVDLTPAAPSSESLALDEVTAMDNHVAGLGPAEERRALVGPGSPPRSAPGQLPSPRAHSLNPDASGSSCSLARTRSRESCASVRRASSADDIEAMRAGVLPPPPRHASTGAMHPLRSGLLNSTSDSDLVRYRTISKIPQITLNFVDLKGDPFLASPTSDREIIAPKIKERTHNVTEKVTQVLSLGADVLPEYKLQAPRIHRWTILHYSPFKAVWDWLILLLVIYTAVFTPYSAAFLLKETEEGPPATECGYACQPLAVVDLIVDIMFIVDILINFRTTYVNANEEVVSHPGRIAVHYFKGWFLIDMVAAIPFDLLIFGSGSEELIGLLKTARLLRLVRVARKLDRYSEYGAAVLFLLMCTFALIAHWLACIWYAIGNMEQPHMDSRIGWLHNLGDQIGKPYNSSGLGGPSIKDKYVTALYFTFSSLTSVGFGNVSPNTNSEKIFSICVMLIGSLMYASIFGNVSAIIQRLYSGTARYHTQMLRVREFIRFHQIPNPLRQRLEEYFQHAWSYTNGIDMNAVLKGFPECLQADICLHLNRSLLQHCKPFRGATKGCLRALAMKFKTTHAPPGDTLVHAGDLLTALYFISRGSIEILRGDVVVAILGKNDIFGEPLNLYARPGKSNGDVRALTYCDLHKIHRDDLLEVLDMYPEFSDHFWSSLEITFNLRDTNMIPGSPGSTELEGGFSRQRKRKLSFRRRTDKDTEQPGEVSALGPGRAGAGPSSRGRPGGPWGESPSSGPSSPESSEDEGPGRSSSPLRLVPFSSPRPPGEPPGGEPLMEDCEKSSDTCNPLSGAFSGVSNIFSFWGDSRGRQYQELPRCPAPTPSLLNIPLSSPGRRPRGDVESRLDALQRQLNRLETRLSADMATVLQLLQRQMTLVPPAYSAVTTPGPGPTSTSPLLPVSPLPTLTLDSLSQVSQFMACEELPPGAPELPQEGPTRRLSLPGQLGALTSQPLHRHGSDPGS
Sequence of 3',5'-cyclic-AMP phosphodiesterase 4D (Q08499 whole entry): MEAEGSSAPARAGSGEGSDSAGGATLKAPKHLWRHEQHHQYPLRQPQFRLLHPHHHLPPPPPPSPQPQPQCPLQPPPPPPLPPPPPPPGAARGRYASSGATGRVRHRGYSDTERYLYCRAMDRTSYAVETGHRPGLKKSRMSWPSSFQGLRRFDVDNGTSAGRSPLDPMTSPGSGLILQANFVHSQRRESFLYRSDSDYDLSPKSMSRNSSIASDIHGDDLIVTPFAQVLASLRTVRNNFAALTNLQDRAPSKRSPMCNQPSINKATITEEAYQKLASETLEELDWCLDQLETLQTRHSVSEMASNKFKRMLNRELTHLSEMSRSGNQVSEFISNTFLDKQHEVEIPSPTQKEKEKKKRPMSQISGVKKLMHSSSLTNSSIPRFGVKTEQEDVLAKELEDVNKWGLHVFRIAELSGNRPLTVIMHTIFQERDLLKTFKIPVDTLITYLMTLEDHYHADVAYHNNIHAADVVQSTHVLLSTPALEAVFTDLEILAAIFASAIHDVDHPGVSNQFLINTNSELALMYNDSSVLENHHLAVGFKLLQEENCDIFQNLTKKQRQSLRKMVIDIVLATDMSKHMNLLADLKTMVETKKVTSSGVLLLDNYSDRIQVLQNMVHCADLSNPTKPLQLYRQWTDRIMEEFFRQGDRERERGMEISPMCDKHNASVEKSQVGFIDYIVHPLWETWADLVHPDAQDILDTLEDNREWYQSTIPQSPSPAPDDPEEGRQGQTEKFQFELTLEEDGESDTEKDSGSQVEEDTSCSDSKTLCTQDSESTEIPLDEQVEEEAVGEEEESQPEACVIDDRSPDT
Sequence of 5-hydroxytryptamine receptor 2B (P41595 whole entry): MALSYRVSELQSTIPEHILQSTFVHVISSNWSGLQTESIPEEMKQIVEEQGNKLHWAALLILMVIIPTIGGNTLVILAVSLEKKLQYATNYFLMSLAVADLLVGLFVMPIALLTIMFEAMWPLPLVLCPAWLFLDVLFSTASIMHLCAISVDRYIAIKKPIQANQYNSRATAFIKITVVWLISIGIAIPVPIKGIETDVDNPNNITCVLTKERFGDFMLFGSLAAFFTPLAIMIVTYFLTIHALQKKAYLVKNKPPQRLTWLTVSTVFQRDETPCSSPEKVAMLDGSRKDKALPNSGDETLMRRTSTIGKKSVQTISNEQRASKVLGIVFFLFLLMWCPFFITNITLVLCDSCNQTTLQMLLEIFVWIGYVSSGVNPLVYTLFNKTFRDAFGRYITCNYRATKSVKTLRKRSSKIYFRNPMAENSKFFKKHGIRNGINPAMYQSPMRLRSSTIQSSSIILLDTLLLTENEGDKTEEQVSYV

In the case of `Cc1nnc2n1-c1ccc(Cl)cc1C(c1ccccc1Cl)=NC2` [TRIAZOLAM], the AC50 (in general, the concentration at which the activity in the assay is half-maximal) in test [1] is > 30 µM; in test [2], 33 µM; in test [3] it was > 30 µM; on D(3) dopamine receptor it was > 30 µM; in [4], 1.1 nM; in [5], > 10 µM. Also, the concentration at half-maximal activity (AC50) was > 30 µM at Vasopressin V2 receptor; > 10 µM in [6]; > 30 µM on B2 bradykinin receptor; > 10 µM in [7]; > 30 µM in test [8]; > 30 µM at Glucocorticoid receptor. The AC50 in test [9] was > 30 µM; on Adenosine receptor A1, > 30 µM; in test [10], > 10 µM; on Cannabinoid receptor 1, > 30 µM.
